Measurements: publication PMC9754640, “Z-REX uncovers a bifurcation in function of Keap1 paralogs” (eLife, 2022)

How the values were obtained:
hKeap1 [1] = target: T1, hKeap1 (Homo sapiens, UniProt Q14145); experiment: Z-REX in zebrafish embryos, biotin-azide Click, streptavidin pulldown, western blot; conditions: covalent; alkyne-labelled compound released from Ht-PreDE (6 uM) in live embryos; also labelled by bolus DE
T1 construct: gene KEAP1; full-length, His6-HaloTag-TEV fusion (2xHA C-terminal in fish); TEV-cleaved after lysis, about 70 kDa; expressed in HEK293T cells or zebrafish embryos
T1 sequence (Q14145 whole entry, the tested form may be a part): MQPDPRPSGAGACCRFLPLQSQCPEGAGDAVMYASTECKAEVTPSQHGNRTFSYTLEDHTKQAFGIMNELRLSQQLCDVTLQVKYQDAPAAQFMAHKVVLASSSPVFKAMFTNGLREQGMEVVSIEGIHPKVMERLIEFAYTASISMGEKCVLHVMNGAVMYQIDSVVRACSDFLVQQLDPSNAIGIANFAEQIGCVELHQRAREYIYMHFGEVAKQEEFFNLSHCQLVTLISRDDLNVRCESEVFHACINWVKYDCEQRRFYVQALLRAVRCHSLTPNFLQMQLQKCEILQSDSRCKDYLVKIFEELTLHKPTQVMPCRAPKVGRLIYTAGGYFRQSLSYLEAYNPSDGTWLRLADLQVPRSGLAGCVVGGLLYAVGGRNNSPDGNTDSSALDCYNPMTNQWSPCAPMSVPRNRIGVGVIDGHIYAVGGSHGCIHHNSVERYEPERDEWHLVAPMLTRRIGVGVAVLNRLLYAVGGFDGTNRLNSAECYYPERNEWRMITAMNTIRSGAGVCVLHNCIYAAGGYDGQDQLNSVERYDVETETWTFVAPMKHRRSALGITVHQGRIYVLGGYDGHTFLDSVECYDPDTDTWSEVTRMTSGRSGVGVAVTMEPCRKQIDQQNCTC

hKeap1 [2] = target: T1, hKeap1; experiment: T-REX photouncaging in HEK293T, TEV cleavage, Cy5-azide Click in-gel fluorescence; assay type: cell-based; conditions: covalent; alkyne-labelled compound released from Ht-PreHNE bound to HaloTag (25 uM in methods), live cells
zKeap1b [3] = target: T2, zKeap1b (Danio rerio, UniProt A0A2R8Q1W5); experiment: as above; assay type: cell-based; conditions: covalent; alkyne-labelled compound released from Ht-PreHNE bound to HaloTag (25 uM in methods), live cells
T2 construct: gene keap1b; full-length, myc-HaloTag-TEV-3xFlag N-terminal fusion, TEV-cleaved after lysis; HEK293T expression
T2 sequence (A0A2R8Q1W5 1-593 isoform A0A2R8Q1W5-3): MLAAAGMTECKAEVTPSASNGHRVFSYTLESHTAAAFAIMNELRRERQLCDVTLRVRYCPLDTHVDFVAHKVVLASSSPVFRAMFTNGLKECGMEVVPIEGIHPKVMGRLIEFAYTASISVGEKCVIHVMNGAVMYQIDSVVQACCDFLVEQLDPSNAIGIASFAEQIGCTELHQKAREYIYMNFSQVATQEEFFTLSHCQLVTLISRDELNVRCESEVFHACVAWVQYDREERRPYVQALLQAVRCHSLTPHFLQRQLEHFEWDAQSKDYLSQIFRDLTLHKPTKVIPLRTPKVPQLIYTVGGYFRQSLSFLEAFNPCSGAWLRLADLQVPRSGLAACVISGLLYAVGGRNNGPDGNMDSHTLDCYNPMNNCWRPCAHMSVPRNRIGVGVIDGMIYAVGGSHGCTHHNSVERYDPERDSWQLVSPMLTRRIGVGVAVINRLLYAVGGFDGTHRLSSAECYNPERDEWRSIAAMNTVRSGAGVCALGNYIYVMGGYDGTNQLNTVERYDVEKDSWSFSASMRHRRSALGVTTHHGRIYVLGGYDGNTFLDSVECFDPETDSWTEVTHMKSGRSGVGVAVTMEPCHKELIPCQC

zKeap1a [4] = target: T3, zKeap1a (Danio rerio, UniProt Q1ECZ2); experiment: as above; assay type: cell-based; conditions: covalent; alkyne-labelled compound released from Ht-PreHNE bound to HaloTag (25 uM in methods), live cells
T3 construct: gene keap1a; full-length, myc-HaloTag-TEV-3xFlag N-terminal fusion, TEV-cleaved after lysis; HEK293T expression
T3 sequence (Q1ECZ2 1-601): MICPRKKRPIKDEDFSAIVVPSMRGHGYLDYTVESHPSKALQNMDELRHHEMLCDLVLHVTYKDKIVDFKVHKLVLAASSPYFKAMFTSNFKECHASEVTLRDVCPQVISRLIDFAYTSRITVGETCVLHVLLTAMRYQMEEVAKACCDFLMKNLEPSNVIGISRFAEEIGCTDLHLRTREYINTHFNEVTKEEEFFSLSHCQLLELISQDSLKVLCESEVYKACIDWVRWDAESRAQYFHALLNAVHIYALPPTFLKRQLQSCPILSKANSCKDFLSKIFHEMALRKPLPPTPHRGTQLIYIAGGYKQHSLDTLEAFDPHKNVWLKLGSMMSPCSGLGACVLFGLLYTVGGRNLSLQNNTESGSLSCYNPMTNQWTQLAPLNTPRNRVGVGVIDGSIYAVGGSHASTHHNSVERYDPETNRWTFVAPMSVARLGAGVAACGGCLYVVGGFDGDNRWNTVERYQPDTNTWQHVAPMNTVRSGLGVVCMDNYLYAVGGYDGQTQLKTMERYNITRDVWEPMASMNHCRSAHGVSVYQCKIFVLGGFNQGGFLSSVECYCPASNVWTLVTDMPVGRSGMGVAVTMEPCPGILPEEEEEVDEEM

hKeap1 [5] = target: T4, hKeap1 (Homo sapiens, UniProt Q14145, C273I); experiment: as above; assay type: cell-based; conditions: covalent; alkyne-labelled compound released from Ht-PreHNE bound to HaloTag (25 uM in methods), live cells
T4 construct: gene KEAP1; full-length, His6-HaloTag-TEV fusion (2xHA C-terminal in fish); TEV-cleaved after lysis, about 70 kDa; expressed in HEK293T cells or zebrafish embryos
T4 sequence (Q14145 whole entry C273I, the tested form may be a part): as the sequence (Q14145 whole entry, the tested form may be a part) above, with C273I counted along it

zKeap1b [6] = target: T2, zKeap1b; experiment: as above; assay type: cell-based; conditions: covalent; alkyne-labelled compound released from Ht-PreNE bound to HaloTag (10 uM in legend, 25 uM in methods), live cells
hKeap1 [7] = target: T4, hKeap1; experiment: as above; assay type: cell-based; conditions: covalent; alkyne-labelled compound released from Ht-PreNE bound to HaloTag (10 uM in legend, 25 uM in methods), live cells
zKeap1a [8] = target: T3, zKeap1a; experiment: as above; assay type: cell-based; conditions: covalent; alkyne-labelled compound released from Ht-PreNE bound to HaloTag (10 uM in legend, 25 uM in methods), live cells
hKeap1 [9] = target: T1, hKeap1; experiment: as above; assay type: cell-based; conditions: covalent; alkyne-labelled compound released from Ht-PreNE bound to HaloTag (10 uM in legend, 25 uM in methods), live cells

For `C#CCCCC/C=C/C(C)=O` [DE], the “Z-REX in zebrafish embryos, biotin-azide Click, streptavidin pulldown, western b” value (hKeap1 [1]) was “using DE as an example that hKeap1-labeling extent was similar to that achieved with HNE”.
With `C#CCCCC(O)/C=C/C=O` (stereo not drawn) [HNE] the “T-REX photouncaging in HEK293T, TEV cleavage, Cy5-azide Click in-gel fluorescenc” value (from here on “T-REX photouncaging in HEK293T”) (hKeap1 [2]) was “all four proteins sensed HNE equally well”, the “T-REX photouncaging in HEK293T” value (zKeap1b [3]) was “all four proteins sensed HNE equally well” and the “T-REX photouncaging in HEK293T” value (zKeap1a [4]) was “all four proteins sensed HNE equally well”. For the same molecule, the “T-REX photouncaging in HEK293T” value (hKeap1 [5]) was “all four proteins sensed HNE equally well”.
`C#CCCCC/C=C/C=O` [NE] was tested, and the targeting efficiency (zKeap1b [6]) was “zKeap1a/b, both of which sensed NE to the same extent”, the targeting efficiency (hKeap1 [7]) was “hKeap1 and hKeap1(C273I) sensed NE marginally better than zKeap1a/b” and the targeting efficiency (zKeap1a [8]) was “zKeap1a/b, both of which sensed NE to the same extent”. For the same molecule, the targeting efficiency (hKeap1 [9]) was “hKeap1 and hKeap1(C273I) sensed NE marginally better than zKeap1a/b”.
